This passage reports MIC90, MIC and IC50 results from PMC10044445, “Tuning the Anthranilamide Peptidomimetic Design to Selectively Target Planktonic Bacteria and Biofilm” (Antibiotics, 2023).

In brackets after ≈: the same amount, converted by molar mass. Like-named read-outs stand apart in the source and are kept apart here.

The test system of one assay is E. coli. Nature of the assay: Minimum inhibitory concentration, broth microdilution (CLSI). The format is cell-based, Escherichia coli. The following applies: for MIC90: broth microdilution in MHB, 18–24 h; for MIC: Table 2, lysine derivative versus parent, read-out: MIC E. coli. Here is the method: (§1) The antimicrobial activity of the compounds was evaluated by a broth microdilution assay using the procedure described by CLSI. Briefly, bacteria were grown to mid-log phase in Muller Hinton broth (MHB) with shaking at 120 rpm and incubated at 37 °C for 12–16 h. Following incubation, bacteria were washed three times in PBS pH 7.4 at 3500 g for 10 min. After washing, bacteria were diluted with fresh MHB. The turbidity of the bacterial suspensions was adjusted so that OD660nm was 0.1, which gave 1 × 10^8 CFU/mL, and then further diluted to achieve 5 × 10^5 CFU/mL as a final bacterial concentration. Each compound was diluted (250–3.9 µM) through two-fold dilution. Wells in microtiter plates were loaded with 100 µL of inoculum containing 5 × 10^5 CFU/mL bacteria. Wells without any compound and containing only bacteria were used as negative controls (i.e., no inhibition of growth). Wells with media only were set as blank. The microtiter plate was wrapped with paraffin to prevent evaporation and incubated with shaking at 120 rpm and 37 °C for 18–24 h. After incubation, spectrophotometric readings were taken. The well without any bacterial growth and showing zero spectrophotometric reading was regarded as the MIC of the compounds.

In the next assay the test system is S. aureus. The description is as above. The class given is cell-based, Staphylococcus aureus. Here is the method:
as §1

The test system of a further assay is MRC-5 human fibroblasts. Kind of assay: Toxicity assay, Alamar Blue. The class given is cell-based. The following applies: MRC5; MRC-5 human fibroblasts, 72 h drug incubation, Alamar Blue. Here is the method: Normal human lung fibroblasts MRC-5 were cultured in minimal essential medium (MEM, Invitrogen) supplemented with 10% foetal calf serum (FCS), 1% L-glutamine–penicillin–streptomycin, 2% sodium bicarbonate, 1% non-essential amino acids (NEAA), and 1% sodium pyruvate. The cell line was maintained at 37 °C in 5% CO2 as an adherent monolayer and was passaged upon reaching confluence by standard cell culture techniques. MRC-5 cells were seeded at 2 × 10^4 cells per well in 96-well plates to ensure full confluence (quiescence). Cells were treated for 24 h after seeding with 0.1 to 1000 μM of compounds. After 72 h of drug incubation, the treated media was replaced with fresh media containing 10% Alamar Blue and the cells were incubated for another 6 h. The metabolic activity was detected by spectrophotometric analysis by assessing the absorbance of Alamar blue as previously described by Pasquier et al. Cell proliferation was determined and expressed as a percentage of untreated control cells. The determination of IC50 values was performed using GraphPad Prism 6 (San Diego, CA, USA). Each experiment was performed in triplicate and was repeated in three independent experiments.

The mark [1] stands for this setting: Staphylococcus aureus, broth microdilution in MHB, 18–24 h.
[2] abbreviates: Staphylococcus aureus, Table 2, lysine derivative versus parent, read-out: MIC S. aureus.

For `NCCNC(=O)[C@H](Cc1c[nH]c2ccccc12)NC(=O)c1cc(Br)ccc1NC(=O)Cc1cccc2ccccc12` [Compound 12b, (S)-N-(1-((2-aminoethyl)amino)-3-(1H-indol-3-yl)-1-oxopropan-2-yl)-5-bromo-2-(2-(naphthalen-1-yl)acetamido)benzamide], the MIC90 against E. coli (Escherichia coli) is greater than 125 µM; with S. aureus (setting [1]), 62.5 µM (≈ 38.3 µg/mL). Moreover, in the assay on S. aureus (Staphylococcus aureus, broth microdilution in MHB, 18–24 h, read-out: MIC90 S. aureus), the MIC turned out to be 15.6 µM (≈ 9.56 µg/mL).
For the compound `COc1ccc2ccccc2c1C(=O)Nc1ccc(Br)cc1C(=O)N[C@@H](Cc1c[nH]c2ccccc12)C(=O)NCCN` [Compound 12c, (S)-N-(2-((1-((2-aminoethyl)amino)-3-(1H-indol-3-yl)-1-oxopropan-2-yl)carbamoyl)-4-bromophenyl)-2-methoxy-1-naphthamide], the figures for the MIC90 with E. coli (Escherichia coli) and in the assay with S. aureus (setting [1]) were greater than 125 µM and 15.6 µM (≈ 9.81 µg/mL), respectively.
In the case of `COc1cc2ccccc2cc1C(=O)Nc1ccc(Br)cc1C(=O)N[C@@H](Cc1c[nH]c2ccccc12)C(=O)NCCN` [Compound 12d, (S)-N-(2-((1-((2-aminoethyl)amino)-3-(1H-indol-3-yl)-1-oxopropan-2-yl)carbamoyl)-4-bromophenyl)-3-methoxy-2-naphthamide], the MIC90 with E. coli (Escherichia coli) is greater than 125 µM; in the assay with S. aureus (setting [1]), 7.8 µM (≈ 4.9 µg/mL). The compound further gave a half-maximal inhibitory concentration (IC50) in the assay with MRC-5 human fibroblasts of 18.7 µM.
Regarding `NCCNC(=O)[C@H](Cc1c[nH]c2ccccc12)NC(=O)c1cc(Br)ccc1NC(=O)c1ccc2ccccc2n1` [Compound 12e, (S)-N-(2-((1-((2-aminoethyl)amino)-3-(1H-indol-3-yl)-1-oxopropan-2-yl)carbamoyl)-4-bromophenyl)quinoline-2-carboxamide], the MIC90 was greater than 125 µM against E. coli (Escherichia coli) and 15.6 µM (≈ 9.35 µg/mL) in the assay with S. aureus (setting [1]).
The like results for `NCCNC(=O)[C@H](Cc1c[nH]c2ccccc12)NC(=O)c1cc(Br)ccc1NC(=O)c1cc2ccccc2[nH]1` [Compound 12f, (S)-N-(2-((1-((2-aminoethyl)amino)-3-(1H-indol-3-yl)-1-oxopropan-2-yl)carbamoyl)-4-bromophenyl)-1H-indole-2-carboxamide] were, in that order, greater than 125 µM and 125 µM (≈ 73.4 µg/mL).
On to `NCCNC(=O)[C@H](Cc1c[nH]c2ccccc12)NC(=O)c1cc(Br)ccc1NC(=O)c1cccs1` [Compound 12g, (S)-N-(2-((1-((2-aminoethyl)amino)-3-(1H-indol-3-yl)-1-oxopropan-2-yl)carbamoyl)-4-bromophenyl)thiophene-2-carboxamide], for which the MIC90 against E. coli (Escherichia coli) is greater than 125 µM; against S. aureus (setting [1]), 125 µM (≈ 69.3 µg/mL).
The like results for `NCCNC(=O)[C@H](Cc1c[nH]c2ccccc12)NC(=O)c1cc(Br)ccc1NC(=O)c1ccsc1` [Compound 12h, (S)-N-(2-((1-((2-aminoethyl)amino)-3-(1H-indol-3-yl)-1-oxopropan-2-yl)carbamoyl)-4-bromophenyl)thiophene-3-carboxamide] were, in that order, greater than 125 µM and 125 µM (≈ 69.3 µg/mL).
Take `NCCNC(=O)[C@H](Cc1c[nH]c2ccccc12)NC(=O)c1cc(Br)ccc1NC(=O)c1ccccc1-c1ccccc1` [Compound 12i, (S)-N-(2-((1-((2-aminoethyl)amino)-3-(1H-indol-3-yl)-1-oxopropan-2-yl)carbamoyl)-4-bromophenyl)-[1,1′-biphenyl]-2-carboxamide]: the MIC90 was greater than 125 µM in the assay on E. coli (Escherichia coli) and 15.6 µM (≈ 9.74 µg/mL) against S. aureus (setting [1]). Moreover, half-maximal inhibition in the assay with MRC-5 human fibroblasts (IC50) was put at 22.9 µM.
Consider `NCCNC(=O)[C@H](Cc1c[nH]c2ccccc12)NC(=O)c1cc(Br)ccc1NC(=O)c1cccc(-c2ccccc2)c1` [Compound 12j, (S)-N-(2-((1-((2-aminoethyl)amino)-3-(1H-indol-3-yl)-1-oxopropan-2-yl)carbamoyl)-4-bromophenyl)-[1,1′-biphenyl]-3-carboxamide], for which the values for the MIC in the assay with E. coli (Escherichia coli) and in the assay on S. aureus (setting [2]) were greater than 125 µM and 3.9 µM (≈ 2.44 µg/mL), respectively. Also, the MIC90 in the assay with E. coli (Escherichia coli) is greater than 125 µM; against E. coli it was greater than 125 µM; with S. aureus (setting [1]), 3.9 µM (≈ 2.44 µg/mL). The same compound gave an IC50 in the assay on MRC-5 human fibroblasts of 13.5 µM.
As to `NCCNC(=O)[C@H](Cc1c[nH]c2ccccc12)NC(=O)c1cc(Br)ccc1NC(=O)c1ccc(-c2ccccc2)cc1` [Compound 12k, (S)-N-(2-((1-((2-aminoethyl)amino)-3-(1H-indol-3-yl)-1-oxopropan-2-yl)carbamoyl)-4-bromophenyl)-[1,1′-biphenyl]-4-carboxamide], the MIC in the assay with E. coli (Escherichia coli) was greater than 125 µM; in the assay on S. aureus (setting [2]), 7.8 µM (≈ 4.87 µg/mL). Moreover, the MIC90 is greater than 125 µM in the assay with E. coli (Escherichia coli) and 7.8 µM (≈ 4.87 µg/mL) against S. aureus (setting [1]). Further, in the assay with MRC-5 human fibroblasts, half-maximal inhibition (IC50) required 12.7 µM.
Turning to `NCCCNC(=O)[C@H](Cc1c[nH]c2ccccc12)NC(=O)c1cc(Br)ccc1NC(=O)c1ccc2ccccc2c1` [Compound 13a, (S)-N-(2-((1-((3-aminopropyl)amino)-3-(1H-indol-3-yl)-1-oxopropan-2-yl)carbamoyl)-4-bromophenyl)-2-naphthamide], the MIC90 was greater than 125 µM in the assay on E. coli (Escherichia coli) and 15.6 µM (≈ 9.56 µg/mL) against S. aureus (setting [1]).
Take `NCCCNC(=O)[C@H](Cc1c[nH]c2ccccc12)NC(=O)c1cc(Br)ccc1NC(=O)Cc1cccc2ccccc12` [Compound 13b, (S)-N-(1-((3-aminopropyl)amino)-3-(1H-indol-3-yl)-1-oxopropan-2-yl)-5-bromo-2-(2-(naphthalen-1-yl)acetamido)benzamide]: the MIC90 against E. coli (Escherichia coli) is greater than 125 µM; against S. aureus (setting [1]), 62.5 µM (≈ 39.2 µg/mL).
`COc1ccc2ccccc2c1C(=O)Nc1ccc(Br)cc1C(=O)N[C@@H](Cc1c[nH]c2ccccc12)C(=O)NCCCN` [Compound 13c, (S)-N-(2-((1-((3-aminopropyl)amino)-3-(1H-indol-3-yl)-1-oxopropan-2-yl)carbamoyl)-4-bromophenyl)-2-methoxy-1-naphthamide]: the MIC90 against E. coli (Escherichia coli) came to 62.5 µM (≈ 40.2 µg/mL); in the assay with S. aureus (setting [1]), 15.6 µM (≈ 10 µg/mL). The compound also came in with a half-inhibitory concentration (IC50) in the assay on MRC-5 human fibroblasts of 20.5 µM.
In the case of `NCCCNC(=O)[C@H](Cc1c[nH]c2ccccc12)NC(=O)c1cc(Br)ccc1NC(=O)c1ccc2ccccc2n1` [Compound 13e, (S)-N-(2-((1-((3-aminopropyl)amino)-3-(1H-indol-3-yl)-1-oxopropan-2-yl)carbamoyl)-4-bromophenyl)quinoline-2-carboxamide], the MIC90 with E. coli (Escherichia coli) and against S. aureus (setting [1]) was greater than 125 µM each time.
As to `CC(C)(C)c1ccc(-c2ccc(N)c(C(=O)N[C@@H](Cc3c[nH]c4ccccc34)C(=O)NCCN)c2)cc1` [Compound 16a, (S)-4-amino-N-(1-((2-aminoethyl)amino)-3-(1H-indol-3-yl)-1-oxopropan-2-yl)-4′-(tert-butyl)-[1,1′-biphenyl]-3-carboxamide], the MIC90 against E. coli (Escherichia coli) was greater than 125 µM; with S. aureus (setting [1]) it was 7.8 µM (≈ 3.88 µg/mL). The compound further registered an IC50 in the assay on MRC-5 human fibroblasts of 34.1 µM.
On to `NCCNC(=O)[C@H](Cc1c[nH]c2ccccc12)NC(=O)c1cc(-c2ccc(C(F)(F)F)cc2)ccc1N` [Compound 16d, (S)-4-amino-N-(1-((2-aminoethyl)amino)-3-(1H-indol-3-yl)-1-oxopropan-2-yl)-4′-(trifluoromethyl)-[1,1′-biphenyl]-3-carboxamide], for which the MIC90 was greater than 125 µM in the assay with E. coli (Escherichia coli) and 15.6 µM (≈ 7.95 µg/mL) against S. aureus (setting [1]).
For `NCCNC(=O)[C@H](Cc1c[nH]c2ccccc12)NC(=O)c1cc(Br)ccc1N` [Compound 17, (S)-2-amino-N-(1-((2-aminoethyl)amino)-3-(1H-indol-3-yl)-1-oxopropan-2-yl)-5-bromobenzamide], in that order: greater than 125 µM and greater than 125 µM.
Colistin [reference compound]: the MIC90 stood at 1 µM in the assay with E. coli and 125 µM against S. aureus (broth microdilution in MHB, 18–24 h).
